Our source for the GI50 and IC50 values is patent US20230416232A1, “PYRIMIDINE COMPOUNDS, COMPOSITIONS, AND MEDICINAL APPLICATIONS THEREOF” (Blueprint Medicines Corporation, priority 2020, published 2023).

Common to all, as to assay type: cell-based
The target of test [1] is EGFR(D770_N771insSVD) expressing Ba/F3 stable cell line (Homo sapiens, UniProt P00533, DUP768-770, cells depend on it). The experiment in a line: Cellular proliferation (Alamar Blue) assay, EGFR(D770_N771insSVD) Ba/F3. The conditions noted are these: 72 hr, read-out: D770 IC50. On the procedure: (§1) Cell line details: • 1. EGFR(D770_N771insSVD) expressing Ba/F3 stable cell line • 2. EGFR (A767_dupASV) expressing Ba/F3 stable cell line • 3. A431 cells • 4. EGFR (H773insNPH) expressing Ba/F3 stable cell line • 5. HER2 (A775_G776insYVMA) expressing Ba/F3 stable cell line
EGFR(D770_N771insSVD) expressing Ba/F3 stable cell line, sequence (P00533 with tags, fused parts or gaps DUP768-770): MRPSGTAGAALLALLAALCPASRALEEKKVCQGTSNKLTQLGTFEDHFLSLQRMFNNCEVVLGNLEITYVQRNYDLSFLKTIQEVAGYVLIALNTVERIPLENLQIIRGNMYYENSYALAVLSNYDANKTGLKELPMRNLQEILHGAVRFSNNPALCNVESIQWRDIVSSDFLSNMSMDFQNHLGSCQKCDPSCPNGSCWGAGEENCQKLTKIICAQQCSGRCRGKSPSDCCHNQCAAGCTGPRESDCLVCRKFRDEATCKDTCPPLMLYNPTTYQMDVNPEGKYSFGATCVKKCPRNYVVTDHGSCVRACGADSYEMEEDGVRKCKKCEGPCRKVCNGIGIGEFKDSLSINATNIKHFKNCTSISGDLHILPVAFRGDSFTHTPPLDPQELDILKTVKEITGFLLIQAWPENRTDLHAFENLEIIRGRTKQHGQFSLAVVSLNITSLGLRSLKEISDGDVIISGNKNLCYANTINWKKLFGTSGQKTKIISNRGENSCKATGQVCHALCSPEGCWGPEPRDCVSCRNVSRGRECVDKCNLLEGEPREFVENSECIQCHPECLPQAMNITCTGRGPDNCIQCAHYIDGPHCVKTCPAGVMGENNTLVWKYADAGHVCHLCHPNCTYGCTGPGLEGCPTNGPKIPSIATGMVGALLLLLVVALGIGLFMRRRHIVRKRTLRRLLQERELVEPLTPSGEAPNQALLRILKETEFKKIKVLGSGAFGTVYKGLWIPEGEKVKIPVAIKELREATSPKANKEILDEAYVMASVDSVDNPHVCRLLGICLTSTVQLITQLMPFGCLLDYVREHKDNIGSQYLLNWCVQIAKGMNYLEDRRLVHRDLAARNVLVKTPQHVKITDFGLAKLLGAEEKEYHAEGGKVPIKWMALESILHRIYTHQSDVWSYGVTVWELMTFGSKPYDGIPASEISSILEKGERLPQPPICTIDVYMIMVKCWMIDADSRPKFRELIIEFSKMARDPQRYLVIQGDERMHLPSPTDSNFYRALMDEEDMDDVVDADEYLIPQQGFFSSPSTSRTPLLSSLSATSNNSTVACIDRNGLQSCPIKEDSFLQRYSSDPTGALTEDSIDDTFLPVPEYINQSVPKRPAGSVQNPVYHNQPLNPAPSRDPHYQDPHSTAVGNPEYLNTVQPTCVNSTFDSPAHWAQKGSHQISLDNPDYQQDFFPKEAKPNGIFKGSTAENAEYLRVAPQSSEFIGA
(§2) • 1. Seed cells at 5000 for A431 and 15,000 cells for Ba/F3 in 100 μL/well in complete media (for A431: DMEM with 10% FBS and for Ba/F3 cells: RPMI with 10% FBS) in 96-well tissue culture plate. Leave outer wells without cells for background measurements. Incubate at 37 degree Celsius in 5% CO2 humidified incubator for 16-18 hours. • 2. Add 0.025 ml of 5X concentration compound dilution or DMSO control. Final compound concentration range is 10-0.0005 μM prepared in 3-fold serial dilutions. Incubate for 72 hr at 37 degree Celsius in 5% CO2 humidified incubator. • 3. Add 0.0125 ml Alamar Blue™ reagent to each well with multi-channel pipette and tap gently on each side of the plate to mix. Incubate for 3 hours at 37 degree Celsius in 5% CO2 humidified incubator. • 4. […] Data analysis was performed using XLfit 5.5.0.5.
(The colour change of resazurin is a common sign of viable cells or microbes.)

The target in test [2] is EGFR (A767_dupASV) expressing Ba/F3 stable cell line (Homo sapiens, UniProt P00533, DUP767-769, cells depend on it). As to the kind of experiment: Cellular proliferation (Alamar Blue) assay, EGFR (A767_dupASV) Ba/F3. The conditions noted are these: 72 hr, read-out: A767 IC50. On the procedure: as §1, §2
EGFR (A767_dupASV) expressing Ba/F3 stable cell line, sequence (P00533 with tags, fused parts or gaps DUP767-769): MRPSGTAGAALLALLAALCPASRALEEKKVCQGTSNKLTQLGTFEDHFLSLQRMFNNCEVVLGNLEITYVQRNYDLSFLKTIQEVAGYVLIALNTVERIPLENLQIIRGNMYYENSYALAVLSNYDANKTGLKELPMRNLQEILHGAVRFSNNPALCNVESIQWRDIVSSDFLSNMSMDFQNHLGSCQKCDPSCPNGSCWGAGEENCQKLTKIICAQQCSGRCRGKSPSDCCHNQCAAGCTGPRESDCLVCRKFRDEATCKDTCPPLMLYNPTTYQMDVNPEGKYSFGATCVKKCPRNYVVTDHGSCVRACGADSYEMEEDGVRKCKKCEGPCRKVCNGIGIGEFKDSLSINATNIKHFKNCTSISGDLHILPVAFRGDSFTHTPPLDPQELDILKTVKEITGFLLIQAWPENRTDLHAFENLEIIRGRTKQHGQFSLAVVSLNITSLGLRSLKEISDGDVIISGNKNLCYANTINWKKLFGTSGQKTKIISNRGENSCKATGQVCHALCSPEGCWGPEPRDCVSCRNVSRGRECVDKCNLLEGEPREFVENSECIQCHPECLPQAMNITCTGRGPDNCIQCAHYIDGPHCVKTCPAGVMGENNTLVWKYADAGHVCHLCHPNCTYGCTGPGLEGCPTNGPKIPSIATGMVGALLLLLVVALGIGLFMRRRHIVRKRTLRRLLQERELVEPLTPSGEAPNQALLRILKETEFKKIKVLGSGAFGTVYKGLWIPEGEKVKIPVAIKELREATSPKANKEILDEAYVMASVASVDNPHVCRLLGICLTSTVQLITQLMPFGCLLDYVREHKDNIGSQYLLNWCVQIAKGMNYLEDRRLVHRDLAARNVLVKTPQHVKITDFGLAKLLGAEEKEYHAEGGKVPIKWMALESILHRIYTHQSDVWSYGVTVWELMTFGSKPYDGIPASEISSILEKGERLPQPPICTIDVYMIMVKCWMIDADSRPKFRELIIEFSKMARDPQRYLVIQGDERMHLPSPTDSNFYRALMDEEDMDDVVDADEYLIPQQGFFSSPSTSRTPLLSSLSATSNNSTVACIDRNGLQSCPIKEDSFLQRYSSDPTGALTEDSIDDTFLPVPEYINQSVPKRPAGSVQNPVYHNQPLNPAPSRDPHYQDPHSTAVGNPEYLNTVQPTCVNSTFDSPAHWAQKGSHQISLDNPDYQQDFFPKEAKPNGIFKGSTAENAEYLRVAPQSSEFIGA
Test [3] has as its system A431 cells. As to the kind of experiment: Cellular proliferation (Alamar Blue) assay, A431 cells. The conditions noted are these: Homo sapiens, A-431, 72 h, A431 cells; 72 hr; Alamar Blue; read-out: A431 IC50. As to the method:
as §2

Test [4] addresses HER2 (A775_G776insYVMA) expressing Ba/F3 stable cell line (Homo sapiens, UniProt P04626, DUP772-775, cells depend on it). The experiment in a line: Cellular proliferation (Alamar Blue) assay, HER2 (A775_G776insYVMA) Ba/F3. The conditions noted are these: HER2 (A775_G776insYVMA) Ba/F3 cells; 72 hr; Alamar Blue; read-out: YVMA IC50. On the procedure:
as §1, §2

Bounds are passed on as bounds.

HER2 (A775_G776insYVMA) expressing Ba/F3 stable cell line, sequence (P04626 with tags, fused parts or gaps DUP772-775): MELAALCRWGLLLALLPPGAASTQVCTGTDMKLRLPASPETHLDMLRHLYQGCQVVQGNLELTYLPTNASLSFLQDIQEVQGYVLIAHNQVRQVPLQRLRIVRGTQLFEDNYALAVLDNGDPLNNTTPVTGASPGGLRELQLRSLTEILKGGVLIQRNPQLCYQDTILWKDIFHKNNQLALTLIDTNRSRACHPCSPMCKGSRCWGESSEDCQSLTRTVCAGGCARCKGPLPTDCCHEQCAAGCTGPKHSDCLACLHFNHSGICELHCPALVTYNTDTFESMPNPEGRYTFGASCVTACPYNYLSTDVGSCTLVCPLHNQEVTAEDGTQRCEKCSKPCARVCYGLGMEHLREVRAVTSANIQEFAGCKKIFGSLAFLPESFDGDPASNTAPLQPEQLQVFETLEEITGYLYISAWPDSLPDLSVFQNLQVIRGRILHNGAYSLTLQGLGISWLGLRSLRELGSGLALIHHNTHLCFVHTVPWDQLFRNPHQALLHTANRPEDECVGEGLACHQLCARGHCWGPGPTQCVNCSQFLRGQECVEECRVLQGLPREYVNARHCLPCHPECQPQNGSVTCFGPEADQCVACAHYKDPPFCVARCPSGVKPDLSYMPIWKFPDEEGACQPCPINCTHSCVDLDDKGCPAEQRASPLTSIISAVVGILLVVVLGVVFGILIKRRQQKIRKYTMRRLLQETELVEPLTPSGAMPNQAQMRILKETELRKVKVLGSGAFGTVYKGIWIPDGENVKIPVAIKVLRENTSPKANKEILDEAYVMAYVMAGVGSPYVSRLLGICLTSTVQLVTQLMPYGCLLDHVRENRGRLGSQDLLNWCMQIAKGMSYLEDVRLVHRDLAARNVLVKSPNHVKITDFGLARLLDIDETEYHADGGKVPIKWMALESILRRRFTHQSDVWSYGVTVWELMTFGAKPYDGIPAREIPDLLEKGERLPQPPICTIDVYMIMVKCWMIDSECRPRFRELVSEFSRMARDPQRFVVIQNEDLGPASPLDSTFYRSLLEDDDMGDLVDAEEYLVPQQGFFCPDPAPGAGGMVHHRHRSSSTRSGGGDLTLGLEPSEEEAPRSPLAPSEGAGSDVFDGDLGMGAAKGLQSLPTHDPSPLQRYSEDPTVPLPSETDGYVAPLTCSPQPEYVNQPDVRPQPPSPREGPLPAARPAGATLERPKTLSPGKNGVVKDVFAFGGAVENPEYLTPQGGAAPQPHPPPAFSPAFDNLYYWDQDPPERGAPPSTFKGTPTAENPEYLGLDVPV

Turning to `C=CC(=O)Nc1ccc(F)c(Nc2nc(Nc3cnn(C)c3)ncc2-c2ccc(OC)c(OC)c2)c1` [Compound 2, N-(3-((5-(3,4-dimethoxyphenyl)-2-((1-methyl-1H-pyrazol-4-yl)amino)pyrimidin-4-yl)amino)-4-fluorophenyl)acrylamide], the GI50 worked out at 1050 nM in test [1] and 896 nM in test [2]. The IC50 (in general, the concentration that inhibits the measured activity by half) in test [3] was more than 10000 nM.
In the same order, the values of `C=CC(=O)Nc1ccc(F)c(Nc2nc(Nc3cnn(C)c3)ncc2-c2ccc(C(F)(F)F)cc2OC)c1` [Compound 10, N-(4-fluoro-3-((5-(2-methoxy-4-(trifluoromethyl)phenyl)-2-((1-methyl-1H-pyrazol-4-yl)amino)pyrimidin-4-yl)amino)phenyl)acrylamide] are 3940 nM, 3230 nM and more than 10000 nM.
With `C=CC(=O)Nc1ccc(F)c(Nc2nc(Nc3cnn(C)c3)ncc2-c2ccc(F)cc2Cl)c1` [Compound 12, N-(3-((5-(2-chloro-4-fluorophenyl)-2-((1-methyl-1H-pyrazol-4-yl)amino)pyrimidin-4-yl)amino)-4-fluorophenyl)acrylamide], the figures for the GI50 in test [1] and in test [2] were 363 nM and 919 nM, respectively.
As for `C=CC(=O)Nc1ccc(F)c(Nc2nc(Nc3cnn(C)c3)ncc2-c2cc(Cl)ccc2OC)c1` [Compound 23, N-(3-((5-(5-chloro-2-methoxyphenyl)-2-((1-methyl-1H-pyrazol-4-yl)amino)pyrimidin-4-yl)amino)-4-fluorophenyl)acrylamide], the GI50 in test [1] worked out at 2730 nM; in test [2], 2760 nM. The half-inhibitory concentration (IC50) in test [3] came to 2890 nM.
In the same order, the values of `C=CC(=O)Nc1ccc(F)c(Nc2nc(Nc3cnn(C)c3)ncc2-c2cc(F)cc(N(C)C)c2)c1` [Compound 42, N-(3-((5-(3-(dimethylamino)-5-fluorophenyl)-2-((1-methyl-1H-pyrazol-4-yl)amino)pyrimidin-4-yl)amino)-4-fluorophenyl)acrylamide] are 942 nM, 737 nM and 4510 nM.
On to `C=CC(=O)Nc1ccc(F)c(Nc2nc(Nc3cn(C)nc3Cl)ncc2-c2ccc(F)c(Cl)c2)c1` [Compound 52, N-(3-((2-((3-chloro-1-methyl-1H-pyrazol-4-yl)amino)-5-(3-chloro-4-fluorophenyl)pyrimidin-4-yl)amino)-4-fluorophenyl)acrylamide], for which the GI50 in test [1] was determined as 104 nM; in test [2] it was 307 nM. Also, the IC50 in test [3] came to 194 nM.
Take `C=CC(=O)Nc1ccc(F)c(Nc2nc(Nc3cnn(C)c3)ncc2-c2ccc3c(c2)CCN3C)c1` [Compound 59, N-(4-fluoro-3-((2-((1-methyl-1H-pyrazol-4-yl)amino)-5-(1-methylindolin-5-yl)pyrimidin-4-yl)amino)phenyl)acrylamide]: the results for the GI50 in test [1] and in test [2] were 300 nM and 957 nM, respectively. Also, the IC50 in test [3] was 575 nM.
Turning to `C=CC(=O)Nc1ccc(F)c(Nc2nc(Nc3cnn(C)c3)ncc2-c2ccc(N3CC(OC)C3)c(F)c2)c1` [Compound 79, N-(4-fluoro-3-((5-(3-fluoro-4-(3-methoxyazetidin-1-yl)phenyl)-2-((1-methyl-1H-pyrazol-4-yl)amino)pyrimidin-4-yl)amino)phenyl)acrylamide], the values for the GI50 in test [1] and in test [2] were 312 nM and 248 nM, respectively. The IC50 in test [3] was found to be 105 nM.
For the molecule `[2H]C([2H])([2H])n1cc(Nc2ncc(-c3ccc(Br)c(F)c3)c(Nc3cc(NC(=O)C=C)ccc3F)n2)cn1` [Compound 169, N-(3-((5-(4-bromo-3-fluorophenyl)-2-((1-(methyl-d3)-1H-pyrazol-4-yl)amino)pyrimidin-4-yl)amino)-4-fluorophenyl)acrylamide], the GI50 in test [1] amounted to 36 nM; in test [4] it was 147 nM. In test [3], the IC50 was found to be 11 nM.
